The record followed here is PMC4457528, “Identification of Novel Small Molecule Inhibitors of Oncogenic RET Kinase” (PLoS ONE, 2015).

The structures appear in SMILES notation. Like-named read-outs stand apart in the source and are kept apart here. Where only a bound is given, the exact number is not on record here.

Assay in all cases: KinomeScan kinase panel, single concentration 10 µM
Holding throughout (type): binding

Test [1] deals with T1, KinomeScan kinase panel (Homo sapiens, UniProt P36888, D835H).
T1 construct: purchased DiscoveRx (KinomeScan)
T1 sequence (P36888 27-993 D835H): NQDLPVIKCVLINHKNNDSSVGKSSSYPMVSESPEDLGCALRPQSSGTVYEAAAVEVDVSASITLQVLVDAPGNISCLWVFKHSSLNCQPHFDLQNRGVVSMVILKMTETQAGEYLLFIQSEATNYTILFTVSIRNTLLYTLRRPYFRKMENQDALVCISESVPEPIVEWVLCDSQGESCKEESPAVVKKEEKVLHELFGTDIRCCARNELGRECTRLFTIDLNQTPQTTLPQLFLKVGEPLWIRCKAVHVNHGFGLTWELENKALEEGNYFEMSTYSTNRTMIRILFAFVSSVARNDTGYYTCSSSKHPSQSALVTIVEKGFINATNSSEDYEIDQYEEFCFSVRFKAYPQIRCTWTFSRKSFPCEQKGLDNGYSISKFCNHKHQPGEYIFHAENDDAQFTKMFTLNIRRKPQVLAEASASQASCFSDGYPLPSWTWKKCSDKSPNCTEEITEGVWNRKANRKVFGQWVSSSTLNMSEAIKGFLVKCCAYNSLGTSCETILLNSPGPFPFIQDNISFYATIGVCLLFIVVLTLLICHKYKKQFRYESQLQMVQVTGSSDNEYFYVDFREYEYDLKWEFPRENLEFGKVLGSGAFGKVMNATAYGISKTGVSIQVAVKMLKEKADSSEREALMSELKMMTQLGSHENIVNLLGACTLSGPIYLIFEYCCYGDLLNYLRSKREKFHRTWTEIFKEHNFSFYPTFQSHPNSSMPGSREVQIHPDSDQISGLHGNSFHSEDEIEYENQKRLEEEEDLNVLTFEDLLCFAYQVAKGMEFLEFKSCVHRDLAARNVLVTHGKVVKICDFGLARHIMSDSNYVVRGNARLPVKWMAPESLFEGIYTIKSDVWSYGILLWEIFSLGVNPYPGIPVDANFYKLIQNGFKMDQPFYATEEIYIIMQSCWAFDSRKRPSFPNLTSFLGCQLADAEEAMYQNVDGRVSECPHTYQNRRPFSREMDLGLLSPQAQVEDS
The conditions noted are these: FLT3(D835H), 10 µM; read-out: score (%).

Test [2] concerns the target T2, KinomeScan kinase panel (Homo sapiens, UniProt Q08345).
T2 construct: purchased DiscoveRx (KinomeScan)
Conditions: DDR1, 10 µM; read-out: score (%).

The target of test [3] is T3, KinomeScan kinase panel (Homo sapiens, UniProt Q9Y4K4).
T3 construct: purchased DiscoveRx (KinomeScan)
Conditions: MAP4K5, 10 µM; read-out: score (%).

For test [4], the target named is T4, KinomeScan kinase panel (Homo sapiens, UniProt Q9Y5S2).
T4 construct: purchased DiscoveRx (KinomeScan)
The conditions noted are these: MRCKB, 10 µM; read-out: score (%).

The target in test [5] is T5, KinomeScan kinase panel (Homo sapiens, UniProt Q16539).
T5 construct: purchased DiscoveRx (KinomeScan)
Conditions: p38-alpha, 10 µM.

Test [6] deals with T6, KinomeScan kinase panel (Homo sapiens, UniProt Q05397).
T6 construct: purchased DiscoveRx (KinomeScan)
Conditions: read-out: score (%).

Test [7] addresses T7, KinomeScan kinase panel (Homo sapiens, UniProt Q8NFD2).
T7 construct: purchased DiscoveRx (KinomeScan)
T7 sequence (Q8NFD2 1-765): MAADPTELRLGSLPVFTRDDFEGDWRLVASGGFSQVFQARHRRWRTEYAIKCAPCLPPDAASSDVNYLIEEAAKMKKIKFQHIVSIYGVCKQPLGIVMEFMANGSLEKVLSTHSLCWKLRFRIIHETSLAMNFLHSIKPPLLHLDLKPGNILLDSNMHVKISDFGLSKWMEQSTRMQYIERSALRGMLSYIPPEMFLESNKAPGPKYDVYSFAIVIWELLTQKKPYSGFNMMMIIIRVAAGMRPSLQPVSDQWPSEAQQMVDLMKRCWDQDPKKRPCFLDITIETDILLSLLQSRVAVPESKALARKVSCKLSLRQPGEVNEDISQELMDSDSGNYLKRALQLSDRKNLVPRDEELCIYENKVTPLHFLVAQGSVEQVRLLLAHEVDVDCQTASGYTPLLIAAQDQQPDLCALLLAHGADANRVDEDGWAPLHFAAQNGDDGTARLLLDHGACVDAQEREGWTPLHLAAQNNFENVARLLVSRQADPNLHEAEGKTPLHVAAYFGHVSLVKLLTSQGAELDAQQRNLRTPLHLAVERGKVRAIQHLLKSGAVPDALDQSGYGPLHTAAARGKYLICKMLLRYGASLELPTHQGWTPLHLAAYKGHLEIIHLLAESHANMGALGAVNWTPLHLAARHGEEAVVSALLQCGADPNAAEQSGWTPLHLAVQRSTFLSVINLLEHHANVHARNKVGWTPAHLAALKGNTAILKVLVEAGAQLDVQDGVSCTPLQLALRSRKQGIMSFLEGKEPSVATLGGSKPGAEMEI
The conditions noted are these: ANKK1, 10 µM; read-out: score (%).

Test [8] concerns the target T8, KinomeScan kinase panel (Homo sapiens, UniProt O43318).
T8 construct: purchased DiscoveRx (KinomeScan)
T8 sequence (O43318 1-606): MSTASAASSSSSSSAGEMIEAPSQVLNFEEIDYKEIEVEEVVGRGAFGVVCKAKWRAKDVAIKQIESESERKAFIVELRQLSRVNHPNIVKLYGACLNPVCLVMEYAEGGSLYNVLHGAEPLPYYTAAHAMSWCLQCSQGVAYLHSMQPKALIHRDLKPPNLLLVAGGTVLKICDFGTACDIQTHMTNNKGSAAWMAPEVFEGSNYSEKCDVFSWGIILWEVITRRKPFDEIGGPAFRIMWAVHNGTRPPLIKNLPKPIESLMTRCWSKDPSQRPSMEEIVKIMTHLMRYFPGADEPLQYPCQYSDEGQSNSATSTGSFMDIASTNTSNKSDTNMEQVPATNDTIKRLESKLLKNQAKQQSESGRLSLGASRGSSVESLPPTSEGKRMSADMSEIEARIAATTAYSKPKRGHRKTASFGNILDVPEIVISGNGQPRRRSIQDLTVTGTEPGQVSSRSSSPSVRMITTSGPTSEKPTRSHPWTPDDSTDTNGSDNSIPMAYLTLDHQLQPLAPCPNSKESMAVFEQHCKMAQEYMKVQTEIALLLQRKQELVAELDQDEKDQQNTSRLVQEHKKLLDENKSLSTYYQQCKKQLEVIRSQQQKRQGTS
Conditions: read-out: score (%).

Test [9] has as its target T9, KinomeScan kinase panel (Homo sapiens, UniProt Q13555).
T9 construct: purchased DiscoveRx (KinomeScan)
Conditions: CAMK2G, 10 µM; read-out: score (%).

T6 sequence (Q05397 whole entry): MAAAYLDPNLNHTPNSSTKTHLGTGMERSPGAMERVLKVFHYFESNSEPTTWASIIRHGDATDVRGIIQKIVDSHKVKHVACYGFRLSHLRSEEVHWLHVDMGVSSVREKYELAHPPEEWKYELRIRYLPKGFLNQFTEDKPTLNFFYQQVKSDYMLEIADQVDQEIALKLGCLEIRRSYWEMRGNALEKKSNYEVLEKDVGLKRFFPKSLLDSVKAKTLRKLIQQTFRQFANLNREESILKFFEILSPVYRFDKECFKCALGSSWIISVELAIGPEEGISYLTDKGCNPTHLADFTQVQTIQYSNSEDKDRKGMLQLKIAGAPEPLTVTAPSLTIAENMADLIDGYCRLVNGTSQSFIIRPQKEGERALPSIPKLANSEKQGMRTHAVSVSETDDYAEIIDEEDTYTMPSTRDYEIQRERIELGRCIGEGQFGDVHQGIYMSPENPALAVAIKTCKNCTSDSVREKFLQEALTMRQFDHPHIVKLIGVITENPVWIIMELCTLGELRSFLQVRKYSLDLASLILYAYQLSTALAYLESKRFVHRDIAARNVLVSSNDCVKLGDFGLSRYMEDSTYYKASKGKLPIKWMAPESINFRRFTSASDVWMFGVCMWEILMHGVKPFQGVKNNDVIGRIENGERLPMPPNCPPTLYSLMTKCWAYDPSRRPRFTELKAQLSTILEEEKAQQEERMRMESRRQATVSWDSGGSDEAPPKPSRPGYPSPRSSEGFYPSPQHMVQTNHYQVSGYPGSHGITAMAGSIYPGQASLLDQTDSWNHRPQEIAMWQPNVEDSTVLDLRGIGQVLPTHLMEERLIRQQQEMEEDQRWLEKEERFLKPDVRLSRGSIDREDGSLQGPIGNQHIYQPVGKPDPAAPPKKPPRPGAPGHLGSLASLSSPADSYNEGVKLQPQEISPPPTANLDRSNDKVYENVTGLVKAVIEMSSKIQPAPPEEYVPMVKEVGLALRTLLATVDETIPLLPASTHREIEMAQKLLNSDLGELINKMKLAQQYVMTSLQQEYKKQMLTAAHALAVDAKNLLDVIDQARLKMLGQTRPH
T9 sequence (Q13555 whole entry): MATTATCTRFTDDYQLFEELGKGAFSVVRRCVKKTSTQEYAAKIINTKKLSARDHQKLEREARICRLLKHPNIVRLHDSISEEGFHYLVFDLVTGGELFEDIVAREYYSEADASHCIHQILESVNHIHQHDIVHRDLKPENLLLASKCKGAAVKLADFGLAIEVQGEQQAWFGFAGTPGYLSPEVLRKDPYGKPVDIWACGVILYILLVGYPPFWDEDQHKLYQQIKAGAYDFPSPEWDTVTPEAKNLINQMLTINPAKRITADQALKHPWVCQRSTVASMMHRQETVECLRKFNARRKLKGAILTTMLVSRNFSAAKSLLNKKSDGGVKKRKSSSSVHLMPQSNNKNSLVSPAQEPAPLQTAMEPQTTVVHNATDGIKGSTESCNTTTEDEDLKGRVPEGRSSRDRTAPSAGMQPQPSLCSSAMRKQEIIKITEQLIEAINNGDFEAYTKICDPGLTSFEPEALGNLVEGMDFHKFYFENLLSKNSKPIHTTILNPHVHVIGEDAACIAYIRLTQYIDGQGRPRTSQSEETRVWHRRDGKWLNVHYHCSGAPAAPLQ
T3 sequence (Q9Y4K4 whole entry): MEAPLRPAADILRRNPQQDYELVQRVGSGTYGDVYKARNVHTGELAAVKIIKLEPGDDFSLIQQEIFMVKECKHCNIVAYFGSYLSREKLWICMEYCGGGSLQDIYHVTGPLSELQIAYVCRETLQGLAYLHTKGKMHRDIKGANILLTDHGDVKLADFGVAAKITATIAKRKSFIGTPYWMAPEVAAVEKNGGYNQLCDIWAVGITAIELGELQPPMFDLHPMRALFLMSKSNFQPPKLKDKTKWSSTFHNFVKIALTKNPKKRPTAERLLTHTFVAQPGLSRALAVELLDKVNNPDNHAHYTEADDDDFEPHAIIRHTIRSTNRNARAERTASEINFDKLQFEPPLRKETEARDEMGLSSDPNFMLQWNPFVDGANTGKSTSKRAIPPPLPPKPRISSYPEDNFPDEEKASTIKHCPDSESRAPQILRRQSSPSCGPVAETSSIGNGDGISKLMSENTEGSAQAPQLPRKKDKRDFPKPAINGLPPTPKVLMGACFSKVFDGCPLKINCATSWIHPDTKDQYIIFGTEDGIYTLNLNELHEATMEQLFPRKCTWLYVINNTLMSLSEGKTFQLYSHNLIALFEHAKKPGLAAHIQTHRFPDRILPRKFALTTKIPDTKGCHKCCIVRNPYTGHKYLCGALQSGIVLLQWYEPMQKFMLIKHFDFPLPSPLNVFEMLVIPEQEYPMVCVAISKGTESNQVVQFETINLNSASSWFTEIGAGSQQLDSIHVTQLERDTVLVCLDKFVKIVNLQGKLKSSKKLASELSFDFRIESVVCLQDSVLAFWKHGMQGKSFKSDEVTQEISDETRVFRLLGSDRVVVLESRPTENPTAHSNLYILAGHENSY
T5 sequence (Q16539 whole entry): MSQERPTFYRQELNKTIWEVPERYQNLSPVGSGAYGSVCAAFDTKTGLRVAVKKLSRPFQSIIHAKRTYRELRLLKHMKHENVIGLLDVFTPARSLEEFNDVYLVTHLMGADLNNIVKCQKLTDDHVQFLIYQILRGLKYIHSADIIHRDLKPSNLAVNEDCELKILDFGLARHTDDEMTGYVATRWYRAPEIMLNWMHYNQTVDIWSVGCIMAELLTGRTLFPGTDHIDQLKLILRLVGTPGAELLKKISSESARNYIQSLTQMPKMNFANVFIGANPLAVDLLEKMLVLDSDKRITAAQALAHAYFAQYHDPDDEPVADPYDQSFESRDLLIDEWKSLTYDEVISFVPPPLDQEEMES
T4 sequence (Q9Y5S2 whole entry): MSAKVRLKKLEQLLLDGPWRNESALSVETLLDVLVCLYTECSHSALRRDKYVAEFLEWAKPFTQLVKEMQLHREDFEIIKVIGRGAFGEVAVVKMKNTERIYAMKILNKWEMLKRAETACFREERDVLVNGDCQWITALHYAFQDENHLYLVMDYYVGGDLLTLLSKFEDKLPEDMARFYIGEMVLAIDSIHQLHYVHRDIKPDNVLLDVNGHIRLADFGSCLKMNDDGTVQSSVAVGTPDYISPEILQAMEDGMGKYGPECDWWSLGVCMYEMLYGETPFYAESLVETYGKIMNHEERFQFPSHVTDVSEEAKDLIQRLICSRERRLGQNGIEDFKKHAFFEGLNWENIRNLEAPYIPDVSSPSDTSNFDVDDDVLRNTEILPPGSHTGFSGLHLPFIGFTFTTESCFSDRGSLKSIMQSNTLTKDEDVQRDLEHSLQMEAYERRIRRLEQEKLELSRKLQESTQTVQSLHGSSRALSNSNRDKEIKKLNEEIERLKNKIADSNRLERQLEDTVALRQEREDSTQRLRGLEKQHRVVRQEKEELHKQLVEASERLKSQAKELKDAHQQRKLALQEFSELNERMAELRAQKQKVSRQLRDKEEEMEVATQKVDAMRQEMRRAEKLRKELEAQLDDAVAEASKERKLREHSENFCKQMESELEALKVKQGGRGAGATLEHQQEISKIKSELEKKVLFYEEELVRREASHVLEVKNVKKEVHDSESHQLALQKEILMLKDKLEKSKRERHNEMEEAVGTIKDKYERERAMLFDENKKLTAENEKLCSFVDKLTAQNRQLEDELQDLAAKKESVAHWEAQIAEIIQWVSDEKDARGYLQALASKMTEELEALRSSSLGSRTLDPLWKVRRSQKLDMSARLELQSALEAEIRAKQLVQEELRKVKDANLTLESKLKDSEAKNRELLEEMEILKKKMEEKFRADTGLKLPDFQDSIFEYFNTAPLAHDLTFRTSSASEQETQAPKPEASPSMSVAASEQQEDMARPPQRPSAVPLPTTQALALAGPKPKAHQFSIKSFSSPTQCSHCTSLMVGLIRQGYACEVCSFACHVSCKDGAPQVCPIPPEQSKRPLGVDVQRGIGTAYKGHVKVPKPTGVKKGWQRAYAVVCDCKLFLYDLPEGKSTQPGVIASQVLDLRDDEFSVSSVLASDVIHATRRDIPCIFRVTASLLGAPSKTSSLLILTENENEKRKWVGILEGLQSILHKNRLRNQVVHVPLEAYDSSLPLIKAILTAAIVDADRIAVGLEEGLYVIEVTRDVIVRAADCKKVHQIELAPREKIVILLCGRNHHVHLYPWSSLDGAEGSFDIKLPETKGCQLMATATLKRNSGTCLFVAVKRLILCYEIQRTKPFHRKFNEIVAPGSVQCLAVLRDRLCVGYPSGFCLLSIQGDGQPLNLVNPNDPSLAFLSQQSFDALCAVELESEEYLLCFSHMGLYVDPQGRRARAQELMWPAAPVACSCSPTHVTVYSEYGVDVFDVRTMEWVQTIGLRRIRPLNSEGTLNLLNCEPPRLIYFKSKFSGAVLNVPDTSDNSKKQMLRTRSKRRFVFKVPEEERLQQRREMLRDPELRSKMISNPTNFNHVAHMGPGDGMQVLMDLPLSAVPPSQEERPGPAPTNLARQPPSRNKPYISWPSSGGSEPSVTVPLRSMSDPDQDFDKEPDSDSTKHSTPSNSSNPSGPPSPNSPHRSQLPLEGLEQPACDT

Turning to `CCN1CCN(Cc2ccc(NC(=O)c3ccc(C)c(NC(=O)c4cncc(-c5cccs5)c4)c3)cc2C(F)(F)F)CC1` [ALW-II-41-27], the remaining binding at 10 µM in [1] is 1.4%; in test [2], 0.15%; in test [3], 0.75%; in [4], more than 30%; in [6] (FAK, 10 µM), more than 30%; in test [7], 1.4%. The remaining binding at 10 µM in test [8] (kinase TAK1, 10 µM) is 0%; in [9] it was more than 30%. In [5], the “score (%)” value was determined as 0%.

Consider `CCN1CCN(Cc2ccc(NC(=O)c3ccc(C)c(/C=C/c4cnc5[nH]ccc5c4Cl)c3)cc2C(F)(F)F)CC1` [HG-6-63-01, (E)-3-(2-(4-chloro-1H-pyrrolo[2,3-b]pyridin-5-yl)vinyl)-N-(4-((4-ethylpiperazin-1-yl)methyl)-3-(trifluoromethyl)phenyl)-4-methylbenzamide], for which the remaining binding at 10 µM in test [1] was 0.1%; in test [2], 0.1%; in test [3], 1.8%; in test [4] it was 30%; in test [6] (PTK2, 10 µM), more than 30%; in test [7], 0.4%. The remaining binding at 10 µM is 0.1% in test [8] (TAK1, 10 µM) and more than 30% in test [9]. For the same molecule, in [5], the “score (%)” value amounted to 0.15%.

Consider `CCN1CCN(Cc2ccc(NC(=O)c3ccc(C)c(C#Cc4cccnc4)c3)cc2C(F)(F)F)CC1` [XMD15-44], for which the remaining binding at 10 µM is 0.15% in test [1]; 0.05% in [2]; 3% in test [3]; more than 30% in test [4]; more than 30% in test [6] (FAK, 10 µM); 8.2% in [7]. Besides, the remaining binding at 10 µM in test [8] (kinase TAK1, 10 µM) was 0.2%; in test [9], more than 30%. Further, the “score (%)” value in [5] came out at 0%.
